Measurements reported in patent US8710085B2, “Pyrrolidine-1,2-dicarboxamide derivatives” (Novartis AG, priority 2008, dated 2014).
Like-named read-outs stand apart in the source and are kept apart here.

Columns and labels:
Assay type in all cases: biochemical
[1] = target: T1, PI3Kδ (Homo sapiens, UniProt O00329); assay: PI3K KinaseGlo assay, PI3Kδ; conditions: 10 nM enzyme, 1 μM ATP, 30 mins, room temperature, read-out: PI3Kd/IC50
T1 construct: p85iSH2(461-568)-GGGGGG-p110δ(2-1044)-His; made in house; host or cells: baculovirus, Tn5 insect cells
T1 sequence (O00329 with tags, fused parts or gaps): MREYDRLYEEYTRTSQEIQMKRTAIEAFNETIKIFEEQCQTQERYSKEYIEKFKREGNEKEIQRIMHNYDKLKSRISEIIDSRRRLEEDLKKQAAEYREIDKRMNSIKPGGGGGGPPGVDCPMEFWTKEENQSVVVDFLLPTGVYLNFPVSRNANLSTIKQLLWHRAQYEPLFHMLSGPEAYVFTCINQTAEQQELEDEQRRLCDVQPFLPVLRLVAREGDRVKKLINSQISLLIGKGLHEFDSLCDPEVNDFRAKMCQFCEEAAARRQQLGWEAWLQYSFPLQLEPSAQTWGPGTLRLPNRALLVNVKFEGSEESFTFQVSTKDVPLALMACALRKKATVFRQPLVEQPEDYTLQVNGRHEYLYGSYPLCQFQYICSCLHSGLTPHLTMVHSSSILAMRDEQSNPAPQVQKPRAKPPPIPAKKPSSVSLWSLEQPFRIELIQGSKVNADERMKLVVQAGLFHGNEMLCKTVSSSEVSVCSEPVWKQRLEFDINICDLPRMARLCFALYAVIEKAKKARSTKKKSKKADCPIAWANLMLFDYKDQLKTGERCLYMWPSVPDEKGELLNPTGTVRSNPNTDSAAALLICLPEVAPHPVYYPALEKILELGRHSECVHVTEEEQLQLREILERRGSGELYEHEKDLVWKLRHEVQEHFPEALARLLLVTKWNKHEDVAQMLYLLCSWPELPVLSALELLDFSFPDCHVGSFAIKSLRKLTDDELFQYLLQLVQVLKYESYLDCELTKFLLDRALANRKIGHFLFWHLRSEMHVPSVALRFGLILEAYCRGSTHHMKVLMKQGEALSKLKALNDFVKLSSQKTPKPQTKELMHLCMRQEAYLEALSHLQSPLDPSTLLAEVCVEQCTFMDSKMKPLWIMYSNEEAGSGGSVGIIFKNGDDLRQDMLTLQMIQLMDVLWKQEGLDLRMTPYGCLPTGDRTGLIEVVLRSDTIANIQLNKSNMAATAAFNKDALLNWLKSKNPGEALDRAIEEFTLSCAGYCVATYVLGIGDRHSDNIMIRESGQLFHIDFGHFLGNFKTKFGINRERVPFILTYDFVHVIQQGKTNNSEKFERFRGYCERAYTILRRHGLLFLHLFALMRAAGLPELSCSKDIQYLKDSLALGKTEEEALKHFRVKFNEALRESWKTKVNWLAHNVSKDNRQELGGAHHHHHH

[2] = target: T2, PI3Kβ (Homo sapiens, UniProt P42338); assay: PI3K KinaseGlo assay, PI3Kβ
T2 construct: p110β(2-1070)-His; made in house; host or cells: baculovirus, Tn5 insect cells
T2 sequence (P42338 with tags, fused parts or gaps): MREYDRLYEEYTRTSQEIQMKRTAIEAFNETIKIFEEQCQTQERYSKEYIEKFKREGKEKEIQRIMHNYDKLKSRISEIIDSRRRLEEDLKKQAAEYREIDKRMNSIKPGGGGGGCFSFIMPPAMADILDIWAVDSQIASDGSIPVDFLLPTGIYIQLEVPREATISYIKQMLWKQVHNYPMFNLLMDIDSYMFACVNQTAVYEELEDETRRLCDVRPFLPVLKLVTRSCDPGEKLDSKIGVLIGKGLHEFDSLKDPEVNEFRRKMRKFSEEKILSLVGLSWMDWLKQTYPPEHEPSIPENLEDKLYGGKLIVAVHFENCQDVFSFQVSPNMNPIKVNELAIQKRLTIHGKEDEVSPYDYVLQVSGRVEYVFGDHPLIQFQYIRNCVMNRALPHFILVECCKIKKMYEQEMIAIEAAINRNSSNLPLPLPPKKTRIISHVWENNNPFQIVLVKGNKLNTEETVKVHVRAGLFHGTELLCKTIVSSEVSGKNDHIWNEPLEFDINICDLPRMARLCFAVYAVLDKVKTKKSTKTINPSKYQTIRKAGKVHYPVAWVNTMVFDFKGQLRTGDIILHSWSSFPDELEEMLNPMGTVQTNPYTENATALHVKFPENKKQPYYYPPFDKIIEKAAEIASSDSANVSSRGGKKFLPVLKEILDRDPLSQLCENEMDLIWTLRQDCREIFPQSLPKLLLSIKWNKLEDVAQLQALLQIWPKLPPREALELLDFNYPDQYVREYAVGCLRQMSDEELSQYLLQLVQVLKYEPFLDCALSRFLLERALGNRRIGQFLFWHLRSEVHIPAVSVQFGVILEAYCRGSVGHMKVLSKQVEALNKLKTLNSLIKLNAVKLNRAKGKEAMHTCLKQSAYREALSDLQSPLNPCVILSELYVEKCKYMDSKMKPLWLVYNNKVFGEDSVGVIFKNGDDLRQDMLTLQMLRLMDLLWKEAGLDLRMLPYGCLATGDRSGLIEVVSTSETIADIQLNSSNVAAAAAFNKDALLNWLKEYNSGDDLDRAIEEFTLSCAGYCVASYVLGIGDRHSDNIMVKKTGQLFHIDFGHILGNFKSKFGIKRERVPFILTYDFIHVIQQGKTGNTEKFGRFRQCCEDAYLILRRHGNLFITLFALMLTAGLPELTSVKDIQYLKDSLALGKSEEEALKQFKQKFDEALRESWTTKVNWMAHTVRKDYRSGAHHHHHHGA
Method: (§1) PI3K KinaseGlo assay: 50 mL of compound dilutions were dispensed onto black 384-well low volume Non Binding Styrene (NBS) plates (Costar Cat. No. NBS#3676). L-a-phosphatidylinositol (PI), provided as 10 mg/ml solution in methanol, was transferred into a glass tube and dried under nitrogen beam. It was then resuspended in 3% OctylGlucoside (OG) by vortexing and stored at 4° C. The KinaseGlo Luminescent Kinase Assay (Promega, Madison/WI, USA) is a homogeneous HTS method of measuring kinase activity by quantifying the amount of ATP remaining in solution following a kinase reaction.
(§2) 5 μL of a mix of PI/OG with the PI3K subtype were added (Table 1). Kinase reactions were started by addition of 5 μl of ATP-mix containing in a final volume 10 μL 10 mM TRIS-HCl pH 7.5, 3 mM MgCl2, 50 mM NaCl, 0.05% CHAPS, 1 mM DTT and 1 μM ATP, and occurred at room temperature. […] The standard was used as a reference compound and included in all assay plates in the form of 16 dilution points in duplicate.
The PI3Kα, PI3Kβ and PI3Kδ constructs are fusion of p85α iSH2 domain and the respective p110 isoforms. The p85α fragment and p110 isoform genes were generated by PCR from first strand cDNA generated by RT-PCR from commercial RNA from placenta, testis and brain as described below. The PI3Kγ construct was obtained from Roger Williams lab, MRC Laboratory of Molecular Biology, Cambridge, UK (November, 2003) and is described (Pacold, Michael E.; Suire, Sabine; Perisic, Olga; Lara-Gonzalez, Samuel; Davis, Colin T.; Walker, Edward H.; Hawkins, Phillip T.; Stephens, Len; Eccleston, John F.; Williams, Roger L. Crystal structure and functional analysis of Ras binding to its effector phosphoinositide 3-kinase gamma. Cell (2000), 103(6), 931-943).
BV949: PCR products for the inter SH2 domain (iSH2) of the p85 PI3Kα, PI13Kβ and PI3Kδ subunit and for the full-length p110β subunit were generated and fused by overlapping PCR. […] The p11013 fragment was obtained by PCR using as template a p110β clone (from unknown source that was sequence verified) using primers gwG130-p04 (5′-[…]-[…]-3′) (SEQ ID NO: 9) which contains linker sequences and the 5′ end of p110β and gwG130-p06 (5′-[…]-[…]-3′) (SEQ ID NO: 10) which contains sequences of the 3′ end of p110-β fused to a Histidine tag. […] This final product was recombined in a Gateway (Invitrogen) […] into the donor vector pDONR201 (Invitrogen) to generate the ORF253 entry clone. This clone was verified by sequencing and used in a Gateway LR reaction (Invitrogen) to transfer the insert into the Gateway adapted pBlueBac4.5 (Invitrogen) vector for generation of the baculovirus expression vector LR280.
(§3) PI3Kα, PI3Kβ and PI3Kγ were purified in two chromatographic steps: immobilized metal affinity chromatography (IMAC) on a Ni sepharose resin (GE Healthcare) and gel filtration utilizing a Superdex 200 26/60 column (GE Healthcare). All buffers were chilled to 4° C. and lysis was performed chilled on ice. Column fractionation was performed at room temperature. All buffers used to purify PI3Kβ contained 0.05% Triton X100 in addition to what is described below.
The lysate was centrifuged at 45,000 g for 30 minutes, and the supernatant was loaded onto a pre-equilibrated IMAC column (3 mL resin/100 mL lysate). […] Protein was eluted with 20 mM Tris-Cl, pH 7.5, 0.5 M NaCl, 5% glycerol, 250 mM imidazole, 1 mM NaF, 0.1 μg/mL OAA, 5 mM BME, 1× Complete protease inhibitor cocktail—EDTA-free. Pertinent fractions were analyzed by SDS-PAGE and pooled accordingly. The protein was further purified by gel filtration on a Superdex 200 26/60 column equilibrated in 20 mM Tris-Cl, pH 7.5, 0.5 M NaCl, 5% glycerol, 1 mM NaF, 5 mM DTT, 1× Complete protease inhibitor cocktail—EDTA-free. Pertinent fractions were analyzed by SDS-PAGE and pooled accordingly.

[3] = target: T3, PI3Kγ (Homo sapiens, UniProt P48736, Q459R); assay: PI3K KinaseGlo assay, PI3Kγ; conditions: 150 nM enzyme, 1 μM ATP, 90 mins, room temperature, read-out: PI3Kg/IC50
T3 construct: p110γ(Δ143-[Met144-1102])-His; made in house; host or cells: Tn5 insect cells; construct from Roger Williams lab, MRC LMB
T3 sequence (P48736 with tags, fused parts or gaps Q459R): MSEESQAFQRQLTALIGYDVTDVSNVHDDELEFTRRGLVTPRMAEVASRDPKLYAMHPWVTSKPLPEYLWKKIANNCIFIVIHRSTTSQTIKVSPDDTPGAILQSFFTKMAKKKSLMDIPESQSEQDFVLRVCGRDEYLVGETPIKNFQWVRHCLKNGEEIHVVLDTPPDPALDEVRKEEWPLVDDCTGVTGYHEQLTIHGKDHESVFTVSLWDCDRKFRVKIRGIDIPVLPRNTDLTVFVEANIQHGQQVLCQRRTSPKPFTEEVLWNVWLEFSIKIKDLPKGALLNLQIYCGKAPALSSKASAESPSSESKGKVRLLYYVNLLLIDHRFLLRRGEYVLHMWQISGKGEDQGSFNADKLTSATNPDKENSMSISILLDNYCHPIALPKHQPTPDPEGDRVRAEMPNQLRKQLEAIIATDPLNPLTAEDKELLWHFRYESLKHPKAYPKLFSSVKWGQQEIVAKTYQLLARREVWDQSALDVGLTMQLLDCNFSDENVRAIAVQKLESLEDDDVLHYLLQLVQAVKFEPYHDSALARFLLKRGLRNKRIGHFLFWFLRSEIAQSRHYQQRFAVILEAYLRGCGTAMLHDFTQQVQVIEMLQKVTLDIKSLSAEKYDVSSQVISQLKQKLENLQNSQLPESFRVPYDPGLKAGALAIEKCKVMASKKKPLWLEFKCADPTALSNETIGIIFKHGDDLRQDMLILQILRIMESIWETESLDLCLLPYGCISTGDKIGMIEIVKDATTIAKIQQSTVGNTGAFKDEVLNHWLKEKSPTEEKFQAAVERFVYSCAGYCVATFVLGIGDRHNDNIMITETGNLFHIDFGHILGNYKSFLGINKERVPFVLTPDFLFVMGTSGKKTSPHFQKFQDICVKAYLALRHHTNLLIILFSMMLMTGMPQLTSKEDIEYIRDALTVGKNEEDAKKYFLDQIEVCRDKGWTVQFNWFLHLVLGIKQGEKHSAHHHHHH
Method: as §1, with “L-a-phosphatidylinositol” for “PI3K KinaseGlo assay: 50 mL of compound dilutions were dispensed onto black 384-well low volume Non Binding Styrene (NBS) plates (Costar Cat. No. NBS#3676). L-a-phosphatidylinositol”
as §2, with “duplicate. […]” for “duplicate.”
as §3
The lysate was centrifuged at 45,000 g for 30 minutes, and the supernatant was loaded onto a pre-equilibrated IMAC column (3 mL resin/100 mL lysate). […] Protein was eluted with 20 mM Tris-Cl, pH 7.5, 0.5 M NaCl, 5% glycerol, 250 mM imidazole, 1 mM NaF, 0.1 μg/mL OAA, 5 mM BME, 1× Complete protease inhibitor cocktail—EDTA-free. Pertinent fractions were analyzed by SDS-PAGE and pooled accordingly. The protein was further purified by gel filtration on a Superdex 200 26/60 column equilibrated in 20 mM Tris-Cl, pH 7.5, 0.5 M NaCl, 5% glycerol, 1 mM NaF, 5 mM DTT, 1× Complete protease inhibitor cocktail—EDTA-free. Pertinent fractions were analyzed by SDS-PAGE and pooled accordingly. An equal volume of Dialysis Buffer (20 mM Tris-Cl, pH 7.5, 500 mM NaCl, 50% glycerol, 5 mM NaF, 5 mM DTT) was added to the pool and than dialyzed against Dialysis Buffer two changes (one change overnight). Protein was stored at −20° C.

[4] = target: T4, PI3Kα (Homo sapiens, UniProt P42336); assay: PI3K KinaseGlo assay, PI3Kα
T4 construct: p110α(21-1068)-His; made in house; host or cells: baculovirus, Tn5 insect cells
T4 sequence (P42336 with tags, fused parts or gaps): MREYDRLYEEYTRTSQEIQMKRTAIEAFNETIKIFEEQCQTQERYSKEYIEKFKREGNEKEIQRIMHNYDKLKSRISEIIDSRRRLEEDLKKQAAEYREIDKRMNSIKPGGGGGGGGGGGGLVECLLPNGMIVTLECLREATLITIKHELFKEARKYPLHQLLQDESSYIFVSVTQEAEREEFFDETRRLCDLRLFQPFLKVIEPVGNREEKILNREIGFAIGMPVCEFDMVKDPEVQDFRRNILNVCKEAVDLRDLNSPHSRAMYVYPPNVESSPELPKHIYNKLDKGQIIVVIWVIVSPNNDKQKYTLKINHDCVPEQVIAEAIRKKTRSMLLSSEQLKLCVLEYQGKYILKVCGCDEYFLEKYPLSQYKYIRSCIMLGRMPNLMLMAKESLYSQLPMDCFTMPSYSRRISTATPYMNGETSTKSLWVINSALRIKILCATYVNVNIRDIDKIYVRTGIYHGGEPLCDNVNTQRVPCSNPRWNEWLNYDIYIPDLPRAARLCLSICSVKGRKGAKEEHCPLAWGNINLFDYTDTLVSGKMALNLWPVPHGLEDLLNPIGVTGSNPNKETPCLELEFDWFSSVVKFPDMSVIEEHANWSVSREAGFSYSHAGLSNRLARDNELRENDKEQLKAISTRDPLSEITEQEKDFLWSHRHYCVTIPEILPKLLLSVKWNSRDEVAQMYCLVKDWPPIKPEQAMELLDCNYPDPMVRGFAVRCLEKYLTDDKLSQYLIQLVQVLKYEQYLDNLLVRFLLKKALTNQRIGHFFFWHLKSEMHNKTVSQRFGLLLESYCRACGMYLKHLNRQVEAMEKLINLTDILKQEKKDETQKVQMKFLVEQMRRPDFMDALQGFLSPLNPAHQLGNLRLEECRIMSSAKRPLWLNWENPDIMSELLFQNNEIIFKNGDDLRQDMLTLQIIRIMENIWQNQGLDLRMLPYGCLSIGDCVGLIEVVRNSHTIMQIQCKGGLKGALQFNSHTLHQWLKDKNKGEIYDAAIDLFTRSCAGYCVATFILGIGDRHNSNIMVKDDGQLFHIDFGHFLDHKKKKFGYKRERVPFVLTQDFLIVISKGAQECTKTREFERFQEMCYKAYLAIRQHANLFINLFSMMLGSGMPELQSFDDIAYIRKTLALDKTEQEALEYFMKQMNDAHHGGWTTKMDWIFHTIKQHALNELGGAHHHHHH

[5] = KinaseGlo, 25 nM enzyme, 1 μM ATP, 30 mins, room temperature, read-out: PI3Kb/IC50
[6] = KinaseGlo, 10 nM enzyme, 1 μM ATP, 30 mins, room temperature, read-out: PI3Ka/IC50
[7] = KinaseGlo, 10 nM enzyme, 1 μM ATP, 30 mins, room temperature

SMILES | IC50 [1] [nM] | IC50 [2, 5] [nM] | IC50 [3] [nM] | IC50 [4, 6] [nM] | PI3Ka/IC50 [4, 7] [umol I-1] | IC50 [4] [nM] | IC50 [2] [nM]
Cc1nc(NC(=O)N2CCC[C@H]2C(N)=O)sc1-c1ccnc(Cc2c(Cl)cccc2Cl)n1 [Example 47, (S)-Pyrrolidine-1,2-dicarboxylic acid 2-amide 1-({5-[2-(2,6-dichloro-benzyl)pyrimidin-4-yl]-4-methyl-thiazol-2-yl}-amide)] | 156 | 2900 | 1870 | 94 |  |  | 
Cc1nc(NC(=O)N2CCC[C@H]2C(N)=O)sc1-c1ccnc(-c2ccccc2F)n1 [Example 51, (S)-Pyrrolidine-1,2-dicarboxylic acid 2-amide 1-({5-[2-(2-fluoro-phenyl)pyrimidin-4-yl]-4-methyl-thiazol-2-yl}-amide)] | 690 | 8840 | 3480 | 113 |  |  | 
Cc1nc(NC(=O)N2CCC[C@H]2C(N)=O)sc1-c1ccnc(C(C)(C)C(F)(F)F)n1 [Example 64, (S)-Pyrrolidine-1,2-dicarboxylic acid 2-amide 1-({4-methyl-5-[2-(2,2,2-trifluoro-1,1-dimethyl-ethyl)-pyrimidin-4-yl]-thiazol-2-yl}-amide)] | 32 | 692 | 451 | 10 |  |  | 
Cc1nc(NC(=O)N2CCC[C@H]2C(N)=O)sc1-c1cncc(C2CC2)n1 [Example 66, (S)-Pyrrolidine-1,2-dicarboxylic acid 2-amide 1-{[5-(6-cyclopropyl-pyrazin-2-yl)-4-methyl-thiazol-2-yl]-amide}] | 298 | 2740 | 435 | 13 |  |  | 
CCN(CC)c1nccc(-c2sc(NC(=O)N3CCC[C@H]3C(N)=O)nc2C)n1 [Example 63, (S)-Pyrrolidine-1,2-dicarboxylic acid 2-amide 1-{[5-(2-diethylamino-pyrimidin-4-yl)-4-methyl-thiazol-2-yl]-amide}] | 98 | 1200 | 790 |  | 0.016 |  | 
NC(=O)[C@@H]1CCCN1C(=O)Nc1ncc(-c2ccnc(C3(C(F)(F)F)CCC3)c2)s1 [Example 13, (S)-Pyrrolidine-1,2-dicarboxylic acid 2-amide 1-({5-[2-(1-trifluoromethyl-cyclobutyl)-pyridin-4-yl]-thiazol-2-yl}-amide)] | 161 | 4490 | 183 |  |  |  | 
Cc1nc(NC(=O)N2CCC[C@H]2C(N)=O)sc1-c1ccnc(C2(C#N)CC2)c1 [Example 18, (S)-Pyrrolidine-1,2-dicarboxylic acid 2-amide 1-({5-[2-(1-cyano-cyclopropyl)pyridin-4-yl]-4-methyl-thiazol-2-yl}-amide)] | 538 | 4140 | 612 |  | 0.019 |  | 
Cc1nc(NC(=O)N2CCC[C@H]2C(N)=O)sc1-c1ccnc(C2CC2)n1 [Example 59, (S)-Pyrrolidine-1,2-dicarboxylic acid 2-amide 1-({4-methyl-5-[2-cyclopropyl-pyrimidin-4-yl]thiazol-2-yl-}-amide)] | 881 | 3500 | 917 | 64 |  |  | 
COc1ccc(C(C)(C)c2cc(-c3sc(NC(=O)N4CCC[C@H]4C(N)=O)nc3C)ccn2)cc1 [Example 27, (S)-Pyrrolidine-1,2-dicarboxylic acid 2-amide 1-[(5-{2-[1-(4-methoxy-phenyl)-1-methyl-ethyl]-pyridin-4-yl}-4-methyl-thiazol-2-yl)-amide]] | 271 | 5200 | 1560 | 81 |  |  | 
COc1ccc(C2(c3cc(-c4sc(NC(=O)N5CCC[C@H]5C(N)=O)nc4C)ccn3)CC2)cc1 [Example 29, (S)-Pyrrolidine-1,2-dicarboxylic acid 2-amide 1-[(5-{2-[1-(4-methoxy-phenyl)-cyclopropyl]-pyridin-4-yl}-4-methyl-thiazol-2-yl)-amide]] | 804 | 6170 | 684 | 56 |  |  | 
CC(C)(c1cc(-c2cnc(NC(=O)N3CCC[C@H]3C(N)=O)s2)ccn1)C(F)(F)F [Example 12, (S)-Pyrrolidine-1,2-dicarboxylic acid 2-amide 1-({5-[2-(2,2,2-trifluoro-1,1-dimethyl-ethyl)-pyridin-4-yl]-thiazol-2-yl}-amide)] | 197 | 3870 | 352 |  |  | 10 | 
Cc1nc(NC(=O)N2CCC[C@H]2C(N)=O)sc1-c1ccnc(C2(C)CC2)n1 [Example 42, (S)-Pyrrolidine-1,2-dicarboxylic acid 2-amide 1-({4-methyl-5-[2-(1-methylcyclopropyl)-pyrimidin-4-yl]-thiazol-2-yl}-amide)] | 289 |  | 858 |  |  |  | 3170
Cc1nc(NC(=O)N2CCC[C@H]2C(N)=O)sc1-c1ccnc(C(C)(C)C)c1 [Example 1, (S)-Pyrrolidine-1,2-dicarboxylic acid 2-amide 1-{[5-(2-tert-butyl-pyridin-4-yl)-4-methyl-thiazol-2-yl]-amide}] | 971 | 4430 | 680 |  |  |  | 
